Reference: patent US6428950B1, “Assay to identify compounds that alter apolipoprotein E expression” (Scios Inc., priority 1998, dated 2002)

How the values were obtained:
BV-2 microglial cells = assay: basal apoE production from BV-2 microglial cell cultures; type: cell-based, murine; conditions: no β-amyloid treatment, FIG. 5
Excerpt: Microglial cell lines were used to evaluate changes in apoE expression. Microglial cell lines for use in the method of the invention include murine lines, e.g. BV-2 cell line (Blasi et al. J. Neuroimmunol. 27:229-237 (1990) and the N9 cell line (Corradin et al. Glia 7:255-262 (1993) or human lines such as those described in Janabi et al. Neurosci. Lett. 195:105-108 (1995). The microglial cell lines used were obtained from the investigators who isolated the lines. Astroglial continuous cell lines were also utilized in the assay, e.g. the human U373-MG line or the rodent lines C6 and DI TNC1. All of these astrocytic lines were obtained, from the American Tissue Culture Collection cell repository (Rockville, Md.).
To screen for inhibitors of apoE secretion or production using cultured brain cells, wells containing cultures were incubated in serum-free medium or medium containing reduced serum concentrations (1 to 0.1%) for various periods of time anywhere from 1-72 hours in the presence of the test compound. For some inhibitors, such as HMG CoA reductase and farnesylation inhibitors, pre-treatment of the cultures with the compound for 4-16 hours in serum-containing growth medium was used to maximize the effectiveness of the assay. Cultures were treated with β-amyloid to stimulate apoE levels in the test paradigm. […]

[1] = system: murine mixed primary glia; assay: basal apoE production from murine mixed primary glia cultures; type: cell-based; conditions: no β-amyloid treatment, FIG. 5
Excerpt: Primary mixed glial cultures, purified primary astrocyte, and purified primary microglial cultures prepared from rodent or human brain tissue (generally fetal) were used in the test assay. A variety of preparation methods can be used to isolate primary glial cultures, both mixed and purified for astroglial or microglial cell types. See e.g. McCarthy and de Vellis, J. Cell Biol. 85:890-902 (1980); Levinson & McCarthy in Culturing Nerve Cells, MIT Press, Cambridge, Mass. at 309-336 (1991); Hu et al. J. Biol. Chem. 271:2543-2547 (1996); Stone et al. Exptl. Neurol. 143:313-318 (1997); Barger et al. Mol. Brain Res. 40:116-126 (1996); and Manthorpe et al. J. Neurocytol. 8:605-621 (1979). Also, primary glial cultures can be prepared which include neurons, such as in the procedure described by Messmer-Joudrier et al. Eur. J. Neurosci. 8: 2652-2661 (1996). For primary cell cultures, different brain regions were used to isolate the cells. Hippocampal, cortical, cerebellar or brain stem cultures were prepared. Primary and continuous cell lines were plated into wells of a multi-well plate at a subconfluent density for the assay. Typically, the cultures were used within 1-2 days of initial plating. […]

[2] = system: organotypic hippocampal cultures; assay: apoE release from organotypic hippocampal brain slice cultures; type: cell-based, rat; conditions: for inhibition of apoE: organotypic hippocampal brain slice cultures, FIG. 7
Experimental: Eight day old neonatal rat or mouse pups were quickly decapitated with scissors, serrated on one edge, in an aseptic fume hood. The brain was rapidly removed to buffered dissection media containing 100 ml MEM, 1 ml penicillin/streptomycin, 1 ml Tris 100×stock (10 mm final, pH 7.2), sterile filtered and chilled. The hippocampi and cortices were isolated under a dissecting microscope and transported in dissection media to a sterile fume hood. Tissue was positioned on the stage of a MacIllwain tissue chopper with a sterile paint brush, and 400 μm sections were made. Approximately 30 sections per animal were be obtained. Sections were separated by vigorously swirling the petri dish containing the sections in culture media, containing 25% horse serum, 25% Hank's media, 50% minimal essential media, 1 ml penicillin/streptomycin, 0.5 ml L-glutamine. Sections were inspected with a dissecting microscope and damaged tissue removed. The selected sections were manipulated in drops of dissecting media with Pasteur pipettes which had been scored and broken, then fire polished, to produce appropriate diameter bores, and placed on Millipore culture plate inserts set into 35 mm plate containing 1 ml culture media or 6 well plates containing 1.2 ml culture media. Plates containing inserts and media had been pre-equilibrated to 37° C. and 5% CO2. Three to six slices were positioned on each insert. Excess media was drawn off the slice, and the culture placed in a 37° C., 5% CO2 incubator. Cultures were maintained for up to 3 months. Media was changed at 24 hours, and at 3-4 day intervals.
Media was pre-equilibrated in plates at 37° C., 5% CO2. Culture inserts holding 3 rat organotypic brain slices obtained from 8 day old animals and maintained in culture for 2 weeks were transferred to the media containing test solution. […]
After treatment, medium is harvested and assayed for apoE levels using immunoassays such as ELISA or Western blot. Cell lysates prepared from the treated brain slices and analyzed for cell-associated apoE using the same assays.

Compound | basal apoE levels (BV-2 microglial cells) | basal apoE levels [1] | apoE release ([2]; organotypic hippocampal cultures, 24, 48, 72 hours after treatment, FIG. 6) | inhibition of apoE [2] | inhibition of apoE ([2]; listed as NaSalicylate)
COC(=O)[C@H](CC(C)C)NC(=O)c1ccc(NC[C@@H](N)CS)cc1-c1ccccc1 [GGTI-286] | reduced basal apoE levels | reduced basal apoE levels | inhibitory effect on apoE release |  | 
O=C([O-])c1ccccc1O.[Na+] [sodium salicylate] |  |  |  | time- and dose-dependent inhibition of apoE | dose dependent inhibition of apoE
